“Also recorded” adds a separate entry of the source.
System: virus
Test: Virus inactivation by detergent component versus nanoemulsion
Assay type: cell-based
Settings: at concentrations equivalent to 11% X8P (BCTP)
From the text: The nanoemulsions structure of the certain embodiments of the emulsions of the present invention may play a role in their biocidal activity as well as contributing to the non-toxicity of these emulsions. […] Adding the oil phase to the detergent and solvent markedly reduces the toxicity of these agents in tissue culture at the same concentrations. […] It should be noted that when all the components of X8P are combined in one composition but are not in a nanoemulsion structure, the mixture is not as effective as an antimicrobial as when the components are in a nanoemulsion structure.
Individual components of nanoemulsions (e.g. in an immunogenic composition of the present invention) can function both to inactivate a pathogen as well as to contribute to the non-toxicity of the emulsions. […] Adding the oil phase to the detergent and solvent markedly reduces the toxicity of these agents in tissue culture at the same concentrations. […] Furthermore, when all the components of BCTP are combined in one composition but are not in a nanoemulsion structure, the mixture is not as effective at inactivating a pathogen as when the components are in a nanoemulsion structure.

Substance: TRITON X-100 [TRITON-X100]
- biocidal activity against virus (ability to inactivate a virus): less biocidal activity; also recorded: less ability to inactivate a virus
